Test results: BindingDB's records for doi:10.1073/pnas.121170598 (Merck Research Laboratories, 2001)
Bridge positions count the residues as written; N and C are the ends. Peptide text beside a SMILES is read from it.

Legend:
[1] = target: Melanin-concentrating hormone receptor 1 (Homo sapiens, UniProt Q99705)
[2] = target: Melanin-concentrating hormone receptor 2 (Homo sapiens, UniProt Q969V1)
Sequence of Melanin-concentrating hormone receptor 2 (Q969V1 whole entry): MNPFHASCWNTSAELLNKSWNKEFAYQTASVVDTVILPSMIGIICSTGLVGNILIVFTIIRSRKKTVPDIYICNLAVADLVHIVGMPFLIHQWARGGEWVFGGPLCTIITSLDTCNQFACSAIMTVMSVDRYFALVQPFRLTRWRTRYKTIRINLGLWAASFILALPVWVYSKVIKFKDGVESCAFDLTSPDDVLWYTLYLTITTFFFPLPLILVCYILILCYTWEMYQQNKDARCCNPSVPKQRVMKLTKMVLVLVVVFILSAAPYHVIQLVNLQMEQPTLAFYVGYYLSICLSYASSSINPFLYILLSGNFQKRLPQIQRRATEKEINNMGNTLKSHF

Sequence of Melanin-concentrating hormone receptor 1 (Q99705 as listed by the source): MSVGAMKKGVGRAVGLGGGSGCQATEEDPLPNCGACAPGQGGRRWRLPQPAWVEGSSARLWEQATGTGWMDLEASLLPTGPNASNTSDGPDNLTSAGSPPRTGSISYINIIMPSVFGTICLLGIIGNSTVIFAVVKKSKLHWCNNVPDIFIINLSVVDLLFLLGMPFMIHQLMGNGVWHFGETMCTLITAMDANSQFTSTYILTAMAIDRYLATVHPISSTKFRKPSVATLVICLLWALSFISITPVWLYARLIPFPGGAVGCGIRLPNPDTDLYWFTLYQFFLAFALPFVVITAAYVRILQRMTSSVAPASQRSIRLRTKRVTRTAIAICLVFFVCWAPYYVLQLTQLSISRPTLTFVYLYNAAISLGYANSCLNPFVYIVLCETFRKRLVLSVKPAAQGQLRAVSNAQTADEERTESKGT

Ki [1] | SMILES | Ki [2]
0.2 nM | CSCC[C@@H]1NC(=O)[C@@H](NC(=O)[C@H](CCCNC(=N)N)NC(=O)[C@H](CCSC)NC(=O)[C@@H](NC(=O)[C@@H](N)CC(=O)O)[C@@H](C)O)CSSC[C@@H](C(=O)N[C@@H](Cc2c[nH]c3ccccc23)C(=O)N[C@@H](CCC(=O)O)C(=O)N[C@H](C(=O)O)C(C)C)NC(=O)[C@@H]2CCCN2C(=O)[C@H](CCCNC(=N)N)NC(=O)[C@H](Cc2ccc(O)cc2)NC(=O)[C@H](C(C)C)NC(=O)[C@H](CCCNC(=N)N)NC(=O)CNC(=O)[C@H](C(C)C)NC1=O [Salmon MCH] (H-DTMRCMVGRVYRPCWEV-OH; disulfide 5-14) | 437 nM
– | CSCC[C@@H]1NC(=O)[C@@H](NC(=O)[C@H](CCCNC(=N)N)NC(=O)[C@H](CC(C)C)NC(=O)[C@H](CCSC)NC(=O)[C@H](CC(=O)O)NC(=O)[C@H](Cc2ccccc2)NC(=O)[C@@H](N)CC(=O)O)CSSC[C@@H](C(=O)N[C@@H](Cc2c[nH]c3ccccc23)C(=O)N[C@@H](CCC(N)=O)C(=O)N[C@H](C(=O)O)C(C)C)NC(=O)[C@@H]2CCCN2C(=O)[C@H](CCCNC(=N)N)NC(=O)[C@H](Cc2ccc(O)cc2)NC(=O)[C@H](C(C)C)NC(=O)[C@H](CCCNC(=N)N)NC(=O)CNC(=O)[C@H](CC(C)C)NC1=O [hMCH] | 1.5 nM
